We go through 15 molecules from PubChem BioAssay AID624129 (Sanford-Burnham Center for Chemical Genomics, 2012).

Each structure is given as a SMILES string. The source made the active and inactive calls. The rule behind the calls is not given here.

Common to all, as to experiment: CXCR6 receptor antagonists, dose response, cell-based, beta-arrestin, DiscoveRx, APJ panel, uHTS hits (AID 624129)
Assay [1] deals with Apelin receptor (Homo sapiens) (UniProt P35414). The note with it: CXCR6 beta-arrestin (DiscoveRx) antagonist cell assay, APJ.
In assay [2] the target is C-C chemokine receptor type 6 (Homo sapiens) (UniProt P51684). The conditions noted are these: CXCR6 beta-arrestin (DiscoveRx) antagonist cell assay.
Assay [3] deals with C-X-C chemokine receptor type 6 (Homo sapiens) (UniProt O00574). The note with it: CXCR6 beta-arrestin (DiscoveRx) antagonist cell assay.
Sequence of C-X-C chemokine receptor type 6 (Homo sapiens) (O00574 whole entry, looked up): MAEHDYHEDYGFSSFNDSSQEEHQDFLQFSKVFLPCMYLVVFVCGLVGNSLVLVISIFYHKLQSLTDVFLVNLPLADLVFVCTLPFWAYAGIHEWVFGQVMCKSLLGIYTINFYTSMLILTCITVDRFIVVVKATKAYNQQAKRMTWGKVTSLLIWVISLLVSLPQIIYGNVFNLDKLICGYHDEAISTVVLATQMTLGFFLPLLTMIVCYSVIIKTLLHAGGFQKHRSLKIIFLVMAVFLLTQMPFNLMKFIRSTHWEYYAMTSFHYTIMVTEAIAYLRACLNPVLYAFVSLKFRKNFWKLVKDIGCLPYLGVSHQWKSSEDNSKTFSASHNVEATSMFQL
The mark [4] stands for this setting: CXCR6, dose range 1, mean IC50 across replicates.
Setting [5] is: CXCR6, run 2, dose range 1, at 79 µM (top of the series).

For `On1ccccc1=S`, the IC50 in assay [1] (dose range 1) is 13.2 µM; in assay [1] (dose range 1, mean IC50 across replicates) it was 17.6 µM; in assay [1] (run 2, dose range 1), 17.5 µM; in assay [1] (run 3, dose range 1) it was 22.2 µM; in assay [2] (CCR6, dose range 1), 11.5 µM; in assay [2] (CCR6, dose range 1, mean IC50 across replicates), 27 µM. Moreover, the IC50 in assay [2] (CCR6, run 2, dose range 1) was 42.4 µM; in assay [3] (setting [4]), 17.8 µM; in assay [3] (CXCR6, run 2, dose range 1) it was 17.3 µM. Moreover, the activity value in assay [3] is 80 µM (inactive). Besides, the IC50 result in assay [3] (CXCR6, dose range 1) was “inactive”. Besides, the inhibition in assay [3] (CXCR6, run 1, dose range 2, at 80 µM (top of the series)) is 51.2%.

With `COC(=O)CSc1[nH]c2ccc(Br)cc2c1[N+](=O)[O-]`, the outcome in assay [3] (CXCR6, dose range 1) was inactive. Further, the half-inhibitory concentration (IC50) was 42.2 µM in assay [3] (setting [4]); 42.2 µM in assay [3] (CXCR6, run 1, dose range 2); more than 79 µM in assay [3] (CXCR6, run 2, dose range 2). Moreover, the inhibition in assay [3] (setting [5]) is 23.1%.

As for `CCn1c(=O)cc(NC2=NCC(C)CN2c2cccc(Cl)c2)n(C)c1=O` (configuration not stated), the outcome in assay [3] (CXCR6, dose range 1) was inactive. Moreover, the half-maximal inhibitory concentration (IC50) in assay [3] (setting [4]) was found to be 19.1 µM; in assay [3] (CXCR6, run 1, dose range 2) it was 19.3 µM; in assay [3] (CXCR6, run 2, dose range 2) it was 19 µM. Moreover, in assay [3] (setting [5]), the inhibition came out at 79%.

Consider `O=C1C=CC2C3C(=O)N(c4ccccc4)C(=O)C3C1N2Cc1ccccc1` (configuration not stated), for which the result in assay [3] (CXCR6, dose range 1) was inactive. Further, the IC50 in assay [3] (setting [4]) is 21.5 µM; in assay [3] (CXCR6, run 1, dose range 2), 19.5 µM; in assay [3] (CXCR6, run 2, dose range 2) it was 23.5 µM. Also, the inhibition in assay [3] (setting [5]) was 108%.

As for `COC(=O)c1cc(CSc2nc3ccc(C)cc3[nH]2)oc1C`, the result in assay [3] (CXCR6, dose range 1) was inactive. The IC50 in assay [3] (setting [4]) was found to be 32.9 µM; in assay [3] (CXCR6, run 1, dose range 2) it was 28.7 µM; in assay [3] (CXCR6, run 2, dose range 2), 37.1 µM. The inhibition in assay [3] (setting [5]) was 66.8%.

Regarding `COc1cccc(/C=C2/CCC(CN(C)C)C2=O)c1` (configuration not stated), the result in assay [3] (CXCR6, dose range 1) was inactive. In addition, the concentration for half-maximal inhibition (IC50) in assay [3] (setting [4]) is 19.4 µM; in assay [3] (CXCR6, run 1, dose range 2) it was 20.6 µM; in assay [3] (CXCR6, run 2, dose range 2), 18.2 µM. Moreover, the inhibition in assay [3] (setting [5]) was found to be 111%.

Take `COc1ccc(C(=O)N/N=C/c2cccc3cccnc23)cc1`: the outcome in assay [3] (CXCR6, dose range 1) was inactive. Moreover, the concentration for half-maximal inhibition (IC50) in assay [3] (setting [4]) worked out at 13.5 µM; in assay [3] (CXCR6, run 1, dose range 2), 12.6 µM; in assay [3] (CXCR6, run 2, dose range 2) it was 14.5 µM. For the same molecule, the inhibition in assay [3] (setting [5]) amounted to 60.1%.

For `Cc1cccc(NC(=S)NNc2ncc(C(F)(F)F)cc2Cl)c1`, the outcome in assay [3] (CXCR6, dose range 1) was inactive. For the same molecule, the IC50 in assay [3] (setting [4]) was found to be 20.5 µM; in assay [3] (CXCR6, run 1, dose range 2), 26.4 µM; in assay [3] (CXCR6, run 2, dose range 2), 14.7 µM. The inhibition in assay [3] (setting [5]) turned out to be 109%.

As to `CCCNC(=O)c1nnsc1S(=O)c1ccc(Cl)cc1` (configuration not stated), the result in assay [3] (CXCR6, dose range 1) was inactive. The IC50 was found to be 11.7 µM in assay [3] (setting [4]); 11.8 µM in assay [3] (CXCR6, run 1, dose range 2); 11.7 µM in assay [3] (CXCR6, run 2, dose range 2). Further, the inhibition in assay [3] (setting [5]) amounted to 112%.

As for `Cc1ccc(NS(=O)(=O)c2cc([N+](=O)[O-])ccc2NNC(=S)Nc2cc(C)ccc2C)c(C)c1`, the outcome in assay [3] (CXCR6, dose range 1) was inactive. In addition, the IC50 in assay [3] (setting [4]) is 33 µM; in assay [3] (CXCR6, run 1, dose range 2), 21.2 µM; in assay [3] (CXCR6, run 2, dose range 2), 44.8 µM. The inhibition in assay [3] (setting [5]) worked out at 114%.

Regarding `CN(C)CCCN(C(=O)CCS(=O)(=O)c1ccccc1)c1nc2cc3c(cc2s1)OCO3`, the result in assay [3] (CXCR6, dose range 1) was inactive. Further, the IC50 was determined as 14.9 µM in assay [3] (setting [4]); 14.3 µM in assay [3] (CXCR6, run 1, dose range 2); 15.5 µM in assay [3] (CXCR6, run 2, dose range 2). Besides, in assay [3] (setting [5]), the inhibition came out at 110%.

With `O=C1C=CC(=O)N1CCCCCCCCCCN1C(=O)C=CC1=O`, the outcome in assay [3] (CXCR6, dose range 1) was inactive. Besides, the half-inhibitory concentration (IC50) came to 16.5 µM in assay [3] (setting [4]); 15.1 µM in assay [3] (CXCR6, run 1, dose range 2); 18 µM in assay [3] (CXCR6, run 2, dose range 2). In addition, in assay [3] (setting [5]), the inhibition was found to be 111%.

For `CS(=O)(=O)c1ncc(Cl)c(C(=O)Nc2ccc(OC(F)F)cc2)n1`, the result in assay [3] (CXCR6, dose range 1) was inactive. The half-inhibitory concentration (IC50) worked out at 13.3 µM in assay [3] (setting [4]); 12.4 µM in assay [3] (CXCR6, run 1, dose range 2); 14.2 µM in assay [3] (CXCR6, run 2, dose range 2). Also, in assay [3] (setting [5]), the inhibition is 113%.

For `Nc1cccc2c1C(=O)N(C(=O)/C=C/c1cccc(F)c1)C2=O`, in assay [3] (CXCR6, dose range 1), the result was inactive. Moreover, the IC50 in assay [3] (setting [4]) turned out to be 51 µM; in assay [3] (CXCR6, run 1, dose range 2) it was 65.1 µM; in assay [3] (CXCR6, run 2, dose range 2), 37 µM. Besides, the inhibition in assay [3] (setting [5]) worked out at 98.3%.

In the case of `Cc1ccc(O)c(C(=O)CC(=O)c2ccc(Cl)cc2)c1`, the outcome in assay [3] (CXCR6, dose range 1) was inactive. In addition, the IC50 in assay [3] (setting [4]) worked out at 13.7 µM; in assay [3] (CXCR6, run 1, dose range 2), 10.8 µM; in assay [3] (CXCR6, run 2, dose range 2) it was 16.5 µM. Moreover, in assay [3] (setting [5]), the inhibition was 91.8%.
